From patent publication US8592403B2, “Diazepine and diazocane compounds as MC4 agonists” (Pfizer Limited, priority 2008, dated 2013)

Experiments:
MC3 receptor (MC3R) = target: T1, MC3 receptor (MC3R) (Homo sapiens, UniProt P41968); assay: Nle4, D-Phe7-α-MSH inhibition at the MC3 receptor (competition binding, SPA, CHO-CRE MC3R membranes)
T1 construct: expressed in transfected cells; host or cells: CHO-CRE MC3R cells (membranes)
Source text: Nle4, D-Phe7-α-MSH Inhibition at the MC3 Receptor
Nle4, D-Phe7-α-MSH is a stable analogue of melanocyte-stimulating hormone (MSH), which is an agonist at the MC3 receptor (MC3R). Compounds can be evaluated for their ability to inhibit Nle4, D-Phe7-α-MSH binding to membranes from cells expressing the MC3R using a competition binding assay versus [^125I] Nle4, D-Phe7-α-MSH.
Cells expressing the MC3R were subject to homogenisation and the membrane fragment isolated by differential centrifugation. CHO-CRE MC3R cell membranes were coupled to PVT-PEI-WGA SPA Beads type A for 2 hours, spun at 1000 RPM for 5 mins and suspended to a final assay concentration of 800 ug bead/ml (1.2 ug membrane, 40 ug bead per well). Bead/membrane mix was incubated with 0.06 nM [^125I] Nle4, D-Phe7-α-MSH and 11 half-log concentrations of competitor ligand, in duplicate, in a total volume of 50 μl buffer per well (25 mM HEPES, 1 mM MgCl2, 2.5 mM CaCl2, 1% Pluronic F68, 1 complete EDTA protease inhibitor tablet/50 ml pH7). Non-specific binding was determined by the inclusion of 100 nM SHU9119. The reaction was initiated by the addition of bead/membranes and plates were incubated at room temperature for 12 hours (the first hour on a plate shaker), after which the amount of radioactivity present was determined using a Wallac plate counter. Ki values were determined by data analysis using appropriate software.

[1] = In vitro metabolism rate determination, human liver microsome (HLM) assay; type: in vitro ADME; details: human, liver microsomes, read-out: HLM: Clint, app
Source text: In Vitro Metabolism Rate Determination (Human Liver Microsome (HLM); Rat Liver Microsome (RLM) Assay)
Many drugs are metabolised by the cytochrome P450 mono-oxygenase system. This enzyme is found in high concentrations in the liver and is bound to the endoplasmic reticulum of the hepatocyte. The enzyme system can be obtained in semi-purified state by the preparation of the hepatic microsomal fractions. Determining a compound's in vitro half-life in such a system provides a useful indicator of metabolic stability.
Methodology for In Vitro Rate Determination Using Hepatic & Supermix Microsomes
The method outlined below is for a total incubation volume of 1.5 ml.
1. The following mixture is prepared in a test tube:
2. Defrost microsomes at room temperature and add sufficient microsomes to give a final concentration of 0.5 nmol cytochrome P450/ml of incubation e.g. for a 1.5 ml incubation, the volume of microsomes to be added is:
3. Add sufficient MilliQ water to give a total incubation volume of 1.425 ml.
6. Add substrate to the incubation. The substrate should be at an initial concentration of 1 μM. The volume of substrate required in the remaining 1.162.5 ml incubation is calculated as follows: […]
8. Pre-incubate the tube containing the incubation mix, also positive control and no cofactor tubes in the thermostatically controlled shaking water bath set at 37° C. for approx 5 min.
9. Add NADP to initiate reaction (75 μl to each 1.162.5 ml incubation mix, 12.5 μl to positive control tube and 5 μl to no substrate tube) and take first time point immediately. The PNA positive control, no cofactor control and no substrate tubes are incubated for the total incubation time.
10. Remove 100 μl aliquots up to 9 different sampling points from 0 to 60 min (usually 0, 3, 5, 10, 15, 20, 30, 45 & 60 min) and terminate reaction. Longer incubation times can be used, but, after 120 min the microsomes deteriorate. The reaction may be terminated by addition of organic solvent, acid or base. At the end of the incubation process the no cofactor and no substrate controls in a similar manner i.e. terminate with the same reagent.
11. Analyse samples (including no cofactor and no substrate control) by a specific assay for the substrate to determine the disappearance kinetics.
Data obtained using the procedure described above can be quantified in terms of the substrates in vitro intrinsic clearance (Clint). Providing that the substrate concentration is below Km, the metabolism should be 1st order giving a log-linear plot of substrate disappearance with time.
The gradient of this line is the first order rate constant (k) for the substrate disappearance and is determined by regression analysis. This rate constant can be converted to the half-life according to the following equation.
Alternatively the rate constant can be converted to an intrinsic clearance (Clint) according to the following equation:— Clint(μl/min/mg)=(k/protein concentration in incubation (mg/ml))*1000

CYP3A4 = target: T2, CYP3A4 (Homo sapiens, UniProt P08684); assay: High density DDI 3 μM cocktail screen in human liver microsomes, midazolam probe; type: in vitro ADME; details: human, liver microsomes, probe midazolam, read-out: % inhibition 3A4 @ 3 μM
T2 construct: utilizes human liver microsomes together with isoform-specific clinical drug probes; from tissue; host or cells: human liver microsomes
T2 sequence (P08684 whole entry, canonical isoform): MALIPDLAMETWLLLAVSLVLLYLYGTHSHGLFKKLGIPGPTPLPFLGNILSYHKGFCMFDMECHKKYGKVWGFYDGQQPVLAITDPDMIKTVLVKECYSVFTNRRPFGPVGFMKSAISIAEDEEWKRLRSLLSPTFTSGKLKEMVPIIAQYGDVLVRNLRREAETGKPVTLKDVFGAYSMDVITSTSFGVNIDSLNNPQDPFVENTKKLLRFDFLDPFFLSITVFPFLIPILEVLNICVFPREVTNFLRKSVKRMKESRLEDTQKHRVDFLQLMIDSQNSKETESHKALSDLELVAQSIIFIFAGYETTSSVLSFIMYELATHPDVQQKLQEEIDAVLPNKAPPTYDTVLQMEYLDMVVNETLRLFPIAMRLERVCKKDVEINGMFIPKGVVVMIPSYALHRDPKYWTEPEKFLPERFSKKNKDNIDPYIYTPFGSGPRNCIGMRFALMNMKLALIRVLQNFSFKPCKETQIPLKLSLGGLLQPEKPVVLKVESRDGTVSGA
Experimental: High Density Drug-Drug Interactions (DDI) 3 μM Cocktail Screen
A drug interaction is a situation in which a substance affects the activity of another drug, i.e. the effects are increased or decreased, or together they produce a new effect that neither produces on its own. Drug interactions may be the result of various processes but a relatively common one is where one drug affects the pharmacokinetics of another by inhibiting the cytochrome P450 that metabolises it. Because of the importance of these phenomena, assessment of the DDI potential for new chemical entities (NCEs) is considered important early on in the drug discovery process.
The DDI cocktail screen in human liver microsomes (HLM) is run in a fully automated fashion and the aim of the screen is to provide a single-point assessment of the DDI potential of new chemical entity (NCE; tested at […]) against the 4 primary cytochrome P450 enzymes, 1A2, 2D6, 2C9 and 3A4.
The substrate cocktail approach for P450 DDI utilizes human liver microsomes together with isoform-specific clinical drug probes and permits the simultaneous measurement of the inhibition of P450 1A2, 2C9, 2D6 & 3A4 activities in a single incubation. This is run in high throughput with simultaneous detection of metabolites by LC-MS/MS. This method has been thoroughly tested and evaluated using standard compounds.
Appearance of the metabolite of each substrate is measured over time in the presence and absence of the NCE (test compound/inhibitor) at a concentration of 3 μM. The compounds are assessed for their inhibitory potential as a percentage value and interpreted using the following scheme.

MC4 receptor = MC4 receptor (Homo sapiens, UniProt P32245); assay: MC4 EC50 functional potency (protocol E of US2005/0176772 / WO 2005/077935); type: cell-based
Sequence of MC4 receptor (P32245 whole entry): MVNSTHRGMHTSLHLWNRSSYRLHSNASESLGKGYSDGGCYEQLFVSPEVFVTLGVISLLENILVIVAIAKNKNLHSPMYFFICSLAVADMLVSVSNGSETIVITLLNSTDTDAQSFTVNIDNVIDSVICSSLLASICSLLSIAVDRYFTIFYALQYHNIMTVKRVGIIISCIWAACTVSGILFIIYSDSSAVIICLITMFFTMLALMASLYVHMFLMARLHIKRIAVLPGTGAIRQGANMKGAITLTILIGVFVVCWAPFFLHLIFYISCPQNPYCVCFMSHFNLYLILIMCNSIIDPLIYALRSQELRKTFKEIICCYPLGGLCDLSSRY
Experimental: The compounds of formula (I) of the present invention have utility as MCR4 agonists in the treatment of various disease states.
MC5 and MC4 EC50 activity was determined as described by assay protocols D and E, respectively, in US2005/0176772 (pages 28-30).

T1 sequence (P41968 whole entry): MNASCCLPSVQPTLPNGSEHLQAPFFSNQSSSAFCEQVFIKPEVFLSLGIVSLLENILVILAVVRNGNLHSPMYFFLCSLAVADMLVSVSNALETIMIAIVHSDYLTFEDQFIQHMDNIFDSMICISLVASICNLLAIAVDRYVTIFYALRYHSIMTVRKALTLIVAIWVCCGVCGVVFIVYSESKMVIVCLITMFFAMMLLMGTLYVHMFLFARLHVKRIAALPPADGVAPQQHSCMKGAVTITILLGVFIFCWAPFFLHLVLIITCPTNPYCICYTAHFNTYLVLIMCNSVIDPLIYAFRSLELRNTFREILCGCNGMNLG

Row | Ki (MC3 receptor (MC3R)) [µM] | microsomal CLint at 1 μM [1] [µL/min/mg] | inhibition at 3 µM (CYP3A4) [%] | EC50 (MC4 receptor) [µM] | Structure (SMILES)
1 | 4.9 | 29.3 | 18.9 | 0.0145 | COc1ccc([C@@H]2CN(c3cccnn3)C[C@H]2C(=O)N2CCC(c3ccc(Cl)cc3)N(C(C)=O)CC2)c(F)c1 (mixture of isomers) [Example 93]
2 | 6.69 | 78.1 | 46.6 | 0.0256 | COc1ccc([C@@H]2CN(c3cccnn3)C[C@H]2C(=O)N2CCC(c3ccc(Cl)cc3)N(S(C)(=O)=O)CC2)c(F)c1 (mixture of isomers) [Example 94]
3 | 4.04 | 41.7 | 41.9 | 0.00818 | COC(=O)N1CCN(C(=O)[C@@H]2CN(c3cccnn3)C[C@H]2c2ccc(OC)cc2F)CCC1c1ccc(Cl)cc1 (mixture of isomers) [Example 95]
4 | 10.1 | 26.2 |  | 0.0119 | CC(C)(C)N1C[C@@H](C(=O)N2CCC[C@@H](c3ccc(Cl)cc3)N(C(=O)C3CC3)CC2)[C@H](c2ccc(F)cc2F)C1 [Example 7]
5 |  | 13.9 | 42.3 | 0.00211 | CC(C)C(=O)N1CCN(C(=O)[C@@H]2CN(c3ccc(=O)n(C)n3)C[C@H]2c2ccc(Cl)cn2)CCC[C@H]1c1ccc(Cl)cc1 [Example 37, 6-[(3S,4S)-3-{[5S-(4-chlorophenyl)-4-isobutyryl-1,4-diazocan-1-yl]carbonyl}-4-(5-chloropyridin-2-yl)pyrrolidin-1-yl]-2-methylpyridazin-3(2H)-one]
6 |  | 173 | 54.5 | 0.00558 | CCN(CC)C(=O)N1CCN(C(=O)[C@@H]2CN(C(C)(C)C)C[C@H]2c2ccc(F)cc2F)CCC[C@H]1c1ccc(Cl)cc1 [Example 44, 4-{[(3S,4R)-1-tert-butyl-4-(2,4-difluorophenyl)pyrrolidin-3-yl]carbonyl}-8S-(4-chlorophenyl)-N,N-diethyl-1,4-diazocane-1-carboxamide]
7 |  | 71.1 | 27.3 | 0.0197 | CC(C)(C)N1C[C@@H](C(=O)N2CCC[C@@H](c3ccc(Cl)cc3)N(C(=O)N3CCOCC3)CC2)[C@H](c2ccc(F)cc2F)C1 [Example 46]
8 |  | 20.6 | 54.2 | 0.00511 | COC(=O)N1CCN(C(=O)[C@@H]2CN(c3ccc(=O)n(C)n3)C[C@H]2c2ccc(Cl)cn2)CCC[C@H]1c1ccc(Cl)cc1 [Example 47, methyl 8S-(4-chlorophenyl)-4-{[(3S,4S)-4-(5-chloropyridin-2-yl)-1-(1-methyl-6-oxo-1,6-dihydropyridazin-3-yl)pyrrolidin-3-yl]carbonyl}-1,4-diazocane-1-carboxylate]
9 | 0.212 |  | 75.2 | 0.00329 | COC(=O)N1CCN(C(=O)[C@@H]2CN(c3ccc4nncn4n3)C[C@H]2c2ccc(Cl)cn2)CCC[C@@H]1c1ccc(Cl)cc1 [Example 51]
10 |  | 27.7 | 58.5 | 0.0147 | CC(C)OC(=O)N1CCN(C(=O)[C@@H]2CN(C(C)(C)C)C[C@H]2c2ccc(F)cc2F)CCC[C@H]1c1ccc(Cl)cc1 [Example 53]
11 | 0.154 | 9.75 | 70.6 | 0.00516 | COC(=O)N1CCN(C(=O)[C@@H]2CN(c3ccc(C#N)nn3)C[C@H]2c2ccc(F)cc2F)CCC[C@H]1c1ccc(Cl)cc1 [Example 55]
12 |  | 55.4 | 38.4 | 0.0252 | CC(C)(C)N1C[C@@H](C(=O)N2CCC[C@@H](c3ccc(Cl)cc3)N(C(=O)C3CCOCC3)CC2)[C@H](c2ccc(F)cc2F)C1 [Example 59, 1-{[(3S,4R)-1-tert-butyl-4-(2,4-difluorophenyl)pyrrolidin-3-yl]carbonyl}-5S-(4-chlorophenyl)-4-(tetrahydro-2H-pyran-4-ylcarbonyl)-1,4-diazocane]
13 |  | 13.9 | 40 | 0.0253 | CC(C)(C)N1C[C@@H](C(=O)N2CCC[C@@H](c3ccc(Cl)cc3)N(C(=O)C3CC(F)(F)C3)CC2)[C@H](c2ccc(F)cc2F)C1 [Example 61]
14 |  | 9.43 | 55.6 | 0.0853 | CC(C)(C)N1C[C@@H](C(=O)N2CCC[C@@H](c3ccc(Cl)cc3)N(C(=O)C3CC(F)(F)C3)CC2)[C@H](c2ccc(Cl)cn2)C1 [Example 63]
15 | 6.86 | 23.1 |  | 0.0166 | CC(C)(C)N1C[C@@H](C(=O)N2CCC[C@@H](c3ccc(Cl)cc3)N(C(=O)CC3CC3)CC2)[C@H](c2ccc(F)cc2F)C1 [Example 65]
16 |  | 31.3 | 76.9 | 0.000852 | COC(=O)N1CCN(C(=O)[C@@H]2CN(c3ccc4nncn4n3)C[C@H]2c2ccc(F)cc2F)CCC[C@H]1c1ccc(Cl)cc1 [Example 96]
